# Source: US9511112B2, “Antibacterial composition for topical use” (GENERAL TOPICS S.r.l., priority 2012, dated 2016)
# Counter-ions that a name gives are not always drawn.
# Test system: bacterial population
# Test: Microbiocidal activity by the same methods, triethyl citrate alone versus composition
# Type: cell-based
# Conditions: 4.5 w/w % in water q.s. to 100 w/w %, without the Peptide
structure (smiles),measurement,value
"CCOC(=O)CC(O)(CC(=O)OCC)C(=O)OCC [triethyl citrate, triethyl-2-hydroxypropane-1,2,3-tricarboxylate]",survival of the bacterial population,25%
